Series [1] has as its target T1, Quinolone resistance protein NorA (Staphylococcus aureus) (UniProt P0A0J7).
T1 sequence (whole entry): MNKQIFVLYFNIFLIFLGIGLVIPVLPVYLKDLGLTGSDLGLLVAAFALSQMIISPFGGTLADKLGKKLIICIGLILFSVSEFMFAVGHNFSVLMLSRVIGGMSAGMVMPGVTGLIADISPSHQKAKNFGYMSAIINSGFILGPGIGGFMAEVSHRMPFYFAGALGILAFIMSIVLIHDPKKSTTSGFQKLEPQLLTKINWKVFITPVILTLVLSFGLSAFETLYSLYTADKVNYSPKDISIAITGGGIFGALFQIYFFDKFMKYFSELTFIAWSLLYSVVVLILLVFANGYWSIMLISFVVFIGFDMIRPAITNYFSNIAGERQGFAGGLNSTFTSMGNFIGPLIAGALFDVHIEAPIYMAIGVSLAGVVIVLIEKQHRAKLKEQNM
Briefly: Inhibition of Staphylococcus aureus 1199B NorA assessed as inhibition of ethidium bromide efflux at 50 uM measured after 5 mins by fluorometric method relative to control.

Series [2] deals with Staphylococcus aureus. The experiment in a line: Antibacterial activity against Staphylococcus aureus 1199B by microdilution method. Type of series: functional. On the technique in general: Dilution methods test growth across graded concentrations, often in twofold steps.
Series [3] deals with T1, Quinolone resistance protein NorA (Staphylococcus aureus). The experiment in a line: Inhibition of Staphylococcus aureus 1199B NorA assessed as potentiation of ciprofloxacin-induced antibacterial activity by checkerboard assay.
In series [4] the target is T2, Quinolone resistance protein NorA (Staphylococcus aureus, UniProt P0A0J7).
T2 sequence (P0A0J7 whole entry): T1 sequence (whole entry)
The experiment in a line: Inhibition of Staphylococcus aureus 1199B NorA assessed as inhibition of ethidium bromide efflux measured after 5 mins by fluorometric method.

The nature of series [5]: Metabolic stability in human liver microsomes at 10 uM preincubated for 10 mins followed by NADPH addition measured after 30 mins by HPLC-MS/MS method. Type of series: ADME. Conditions: 0.5 h. A general note: Microsomes from liver hold many membrane-bound enzymes, among them those of drug oxidation.
The nature of series [6]: Solubility in D2O solution at 25 degC by 1H NMR analysis. Type of series: physicochemical.
Series [7] is described as follows: Dissociation constant, pKa of the compound. Type of series: physicochemical.

SMILES strings stand for the structures. Converted amounts (≈) assume the structure as drawn.

By inhibition is commonly meant the relative decrease from the control value, in per cent. On to `COc1cc(CNCCO)ccc1Oc1nnnn1-c1ccccc1`, for which, in series [1], the inhibition was under 10%.
For the compound `OCCCN1CCN(CCCOc2ccccc2-c2ccccc2)CC1`, the inhibition in series [1] was under 10%.
A word on the MIC: it is the lowest concentration that inhibits growth of the organism. The IC50 is the midpoint of a concentration-inhibition curve. As to `CCOC(=O)c1c(C)n(Cc2ccccc2)c2ccc(OCC(O)CNCc3ccc(Oc4nnnn4-c4ccccc4)c(OC)c3)cc12` (stereo not given), the minimum inhibitory concentration (MIC) in series [2] is over 100 µg/mL. The fractional inhibitory concentration index (FICI) in series [3] is 0.13. Besides, the inhibition in series [1] turned out to be 96.9%. Moreover, the IC50 in series [4] came to 4.93 µM.
With `CCOC(=O)c1c(C)n(Cc2ccccc2)c2ccc(OCCCN)cc12`, in series [2], the MIC was over 100 µg/mL.
Compound `CCOC(=O)c1c(C)n(Cc2ccccc2)c2ccc(OCCCN3CCCCC3)cc12` showed a minimal inhibitory concentration (MIC) in series [2] of over 100 µg/mL. The fractional inhibitory concentration index (FICI) in series [3] is 0.28.
In series [2], `CCOC(=O)c1c(C)n(Cc2ccccc2)c2ccc(OCCCNCc3ccccc3)cc12` yielded a minimum inhibitory concentration (MIC) of over 100 µg/mL.
Turning to `CCOC(=O)c1c(C)n(Cc2ccccc2)c2ccc(OCCCNCc3nnnn3-c3ccccc3)cc12`, the inhibition in series [1] is 22.8%.
What is called solubility is the dissolved amount per volume that the medium holds. A lower solubility goes with little dissolved substance. The pKa is the negative logarithm of the acid dissociation constant. Read a low pKa as a group that gives up its proton readily. In turn, `CCOC(=O)c1c(C)n(Cc2ccccc2)c2ccc(OCCCCNCc3ccc(Oc4nnnn4-c4ccccc4)c(OC)c3)cc12` had an MIC in series [2] of over 100 µg/mL. Further, in series [5], the Stability entry is listed as “Stable”. Further, the fractional inhibitory concentration index (FICI) in series [3] is 0.25. The same compound came in with a solubility in series [6] of under 2 µM. In addition, the pKa in series [7] stood at 8.2. The inhibition in series [1] stood at 101%. Further, in series [4], the half-maximal inhibitory concentration (IC50) was determined as 2.02 µM.
Regarding `CCOC(=O)c1c(C)n(Cc2ccccc2)c2ccc(OCCN3CCN(CCCOc4ccccc4-c4ccccc4)CC3)cc12`, in series [1], the inhibition is 27.1%.
On the same count and under the same terms, next, `CCOC(=O)c1c(C)n(Cc2ccccc2)c2ccc(OCCN3CCN(CCOc4ccccc4-c4ccccc4)CC3)cc12`: 24.3 to 50%.
On to `CCOC(=O)c1c(C)n(Cc2ccccc2)c2ccc(OCCCNCc3ccc(F)c(OC)c3)cc12`, for which, in series [2], it took 6.3 µg/mL (≈ 12.5 µM) to inhibit growth (MIC). In addition, the inhibition in series [1] amounted to 67%. In series [4], the IC50 was 3.83 µM.
On to `CCOC(=O)c1c(C)n(Cc2ccccc2)c2ccc(OCCCN3CCN(CCCOc4ccccc4-c4ccccc4)CC3)cc12`, for which, in series [1], the inhibition worked out at 12.1%.
The compound `CCOC(=O)c1c(C)n(Cc2ccccc2)c2ccc(OCCCNCc3ccc(Oc4nnnn4-c4ccccc4)c(OC)c3)cc12` gave a minimum inhibitory concentration (MIC) in series [2] of over 100 µg/mL. For the same compound, the Stability entry in series [5] is reported as “Stable”. The fractional inhibitory concentration index (FICI) in series [3] stood at 0.27. In series [6], this compound came in with a solubility of under 2 µM. In series [7], this compound came in with a pKa of 7.21. Moreover, in series [1], the inhibition lay in the range of 95 to 96.5%. The concentration for half-maximal inhibition (IC50) in series [4] lay within 1.8 to 1.82 µM.
Take `CCOC(=O)c1c(C)n(Cc2ccccc2)c2ccc(OCC(O)CNCC(O)COc3ccc4c(c3)c(C(=O)OCC)c(C)n4Cc3ccccc3)cc12` (stereo not given): the inhibition in series [1] lay in the range of 78 to 100%. In series [4], the 50% inhibitory concentration (IC50) turned out to be 19.9 µM.
Regarding `CCOC(=O)c1c(C)n(Cc2ccccc2)c2ccc(OCCNCc3ccc(Oc4nnnn4-c4ccccc4)c(OC)c3)cc12`, the inhibition in series [1] is 50.3%.
Same read-out and setting: as for `CCOC(=O)c1c(C)n(Cc2ccccc2)c2ccc(OCCCN3CCN(CCCOc4ccc(F)cc4)CC3)cc12`, the figure is 53.7%.

The values are drawn from ChEMBL document CHEMBL3877305, “Improved Potency of Indole-Based NorA Efflux Pump Inhibitors: From Serendipity toward Rational Design and Development” (J Med Chem, 2017).
